{"source": "patent US20080227809A1", "about": "“Arylalkylamine Vanadium (V) Salts for the Treatment and/or Prevention of Diabetes Mellitus” (GENMEDICA THERAPEUTICS SL, priority 2004, published 2008)", "key": {"isolated rat adipocytes": {"test_system": "isolated rat adipocytes", "test": "glucose transport (2-deoxyglucose uptake) in isolated rat adipocytes", "type": "cell-based", "conditions": "for stimulatory effect on glucose transport in the presence of semicarbazide: 1 mM semicarbazide (SSAO inhibitor); for stimulation of glucose transport: 45 min incubation", "description": "In order to determine whether salts formed by vanadate and benzylamine could produce an insulin mimetic effect, the effect of increasing concentrations of hexaquis(benzylammonium) decavanadate on glucose transport activity in isolated rat adipocytes was tested. Hexaquis(benzylammonium) decavanadate induced the stimulation of glucose transport which was perceptible from concentrations of 0.5 μM, with a maximal effect observed 2.5 μM and the semimaximal effect above 1 μM. […] The maximum effect provoked by incubation with hexaquis(benzylammonium) decavanadate was greater than that produced by the presence of benzylamine and vanadate in combination (FIG. 1). […] In similar assays, the activity of hexaquis(benzylammonium) decavanadate, pentaquis(benzylammonium) decavanadate and tetraquis(benzylammonium) decavanadate on glucose transport activity in isolated rat adipocytes were analyzed.\nTo determine the possible insulin mimetic effect of certain vanadium arylalkylamines, the capacity of these compounds to enhance glucose transport in isolated rat adipocytes was tested. Adipose cells from Wistar rats were incubated for 45 minutes in basal conditions (Basal) or in the presence of 100 nM insulin (Ins), and different concentrations of. hexaquis(benzylammonium) decavanadate (B6V10) in the absence or in the presence of 1 mM semicarbazide (SCZ). Subsequently, 2-DG transport was measured over a 5 min. interval.\nThe effects of the three tested compounds (B6V10, B5V10 and B4V10) were compared. Adipose cells from Wistar rats were incubated for 45 minutes in basal conditions (Basal) or in the presence of 100 nM insulin (Ins), and different concentrations of. decavanadate (V10), hexaquis(benzylammonium) decavanadate (B6V10), pentaquis(benzylammonium) decavanadate (B5V10) or tetraquis(benzylammonium) decavanadate (B4V10) in the absence or in the presence of 1 mM semicarbazide (SCZ). 2-DG transport was measured over 5 min. intervals. […] The stimulation of all three compounds on glucose transport was blocked in the presence of semicarbazide.\nIn additional experiments, compounds shown in FIG. 6A (named 2-(4-fluoro-phenyl)-ethylamine (compound A), 3-phenyl-propylamine (compound B), 4-fluoro-benzylamine (compound C) and 4-phenyl-butylamine (compound D)) were assessed using the experimental methods set forth above for the capacity to stimulate 2-DG uptake in isolated rat adipocytes. Adipose cells from Wistar rats were incubated for 45 minutes in basal conditions (Basal) or in the presence of 100 nM insulin (Ins), and different concentrations of vanadium salts of 2-(4-fluoro-phenyl)-ethylamine (compound A), 3-phenyl-propylamine (compound B), 4-fluoro-benzylamine (compound C) and 4-phenyl-butylamine (compound D). 2-DG transport was measured over 5 min.\n(§1) The effects of incubation with semicarbazide or phosphatidylinositol 3-kinase inhibitors were also investigated. Adipose cells were incubated with B6V10 (25 μM, 45 min) in the absence or presence of wortmannin (2 μM, 45 min), LY294002 (10 μM, 45 min) or semicarbazide (1 mM, 45 min) and thereafter 2-deoxyglucose uptake was determined during 5 min. Activation of protein kinase B phosphorylation induced by B6V10 was blocked by semicarbazide and it was not observed by decavanadate. In addition, phosphatidylinositol 3-kinase inhibitors wortmannin and LY294002 blocked B6V10-induced glucose transport (FIG. 7E)."}, "[1]": {"test_system": "isolated mouse adipocytes", "test": "glucose transport (2-DG) in isolated mouse adipocytes", "type": "cell-based", "conditions": "100 μM", "description": "Adipose cells from FVB mice were incubated for 45 minutes in basal conditions (Basal) or in the presence of 100 nM insulin (Ins), and different concentrations of hexaquis(benzylammonium) decavanadate (B6V10) in the absence or in the presence of 1 mM semicarbazide (SCZ) and thereafter, 2-DG transport was measured over 5 min."}, "protein kinase B": {"test_system": "protein kinase B", "test": "protein kinase B phosphorylation in isolated rat adipocytes", "type": "cell-based", "conditions": "25 μM", "description": "(§2) Isolated fat cells were disrupted for total membrane preparation by hypo-osmotic lysis in a 20 mM HES buffer and an antiprotease and antiphosphatase cocktail as reported by Abella et al. (2003, Diabetes 52: 1004-1013). Protein concentrations were determined by the Bradford method (Bradford, 1976, Anal. Biochem. 72: 248-254) with gamma-globulin as protein concentration standard. Immunoprecipitation and immunoblot assays were performed as previously described by Abella et al. (2004, Id.) with the use of a monoclonal antiphosphotyrosine antibody for the immunoprecipitation and an anti-insulin receptor antibody for immunobloting, respectively. SDS-polyacrylamide gel electrophoresis was performed on membrane proteins following conventional procedures. Proteins were transferred to Immobilon and immunoblotting was performed as reported by Castello et al. (1994, J. Biol. Chem. 269: 5905-5912).\nThe mechanism of action of B6V10 was investigated in isolated rat adipocytes. Adipose cells from Wistar rats were incubated for different times in the presence of 25 μM hexaquis(benzylammonium) decavanadate (B6V10). Cells were also incubated in the presence of insulin (100 nM, 45 min), decavanadate (25 μM, 45 min) or semicarbazide (1 mM, 45 min). Subsequently, 2-deoxyglucose uptake (results shown in FIG. 7A), tyrosine phosphorylation of insulin receptor (FIG. 7B), phospho-Thr^308-protein kinase B (FIG. 7C) and phospho-Ser^473-protein kinase B (FIG. 7D) was measured. […] The phosphorylation of protein kinase B induced by B6V10 was parallel to activation of glucose transport (FIGS. 7C and 7D).\nas §1"}, "insulin receptor": {"test_system": "insulin receptor", "test": "tyrosine phosphorylation of insulin receptor in isolated rat adipocytes", "type": "cell-based", "conditions": "25 μM", "description": "as §2\nThe mechanism of action of B6V10 was investigated in isolated rat adipocytes. Adipose cells from Wistar rats were incubated for different times in the presence of 25 μM hexaquis(benzylammonium) decavanadate (B6V10). […] Subsequently, 2-deoxyglucose uptake (results shown in FIG. 7A), tyrosine phosphorylation of insulin receptor (FIG. 7B), phospho-Thr^308-protein kinase B (FIG. 7C) and phospho-Ser^473-protein kinase B (FIG. 7D) was measured. […]"}, "high-fat fed mice": {"test_system": "high-fat fed mice", "test": "glucose tolerance and plasma insulin in high-fat fed mice", "type": "in vivo, mouse", "description": "Insulin and glucose responses during the glucose tolerance test were calculated as the incremental plasma values integrated over a period of 120 min after injection of glucose. Areas under curves of insulin and glucose responses were calculated using the Graph Prism program (SOURCE?). Data distribution was analyzed by the Kolmogorov-Smirnov test. Data were presented as mean ±SEM and unpaired Student's t test was used to compare two groups. When experimental series involved more than two groups, statistical analysis was done by one-way or two-way ANOVA and further post-hoc (Dunnett, Tukey or Bonferroni) t tests. Statistical analysis was performed with SPSS 11.0 or GraphPad Prism 4 programs."}, "diabetic rats": {"test_system": "diabetic rats", "test": "plasma lipids of diabetic rats", "type": "in vivo, rat", "method": "Plasma triglycerides (Biosystems, Barcelona, Spain) and NEFAS (Wako Chemicals, Neuss, Germany) were determined with standard calorimetric methods.\nThe concentration of circulating lipids under these conditions was also assayed. […] Untreated diabetic (solid bars, FIG. 9B) or nondiabetic rats (open bars, FIG. 9B) were similarly assayed as controls."}, "[2]": {"conditions": "in vivo"}}, "note": "Entries after “also recorded” stand apart in the source; their conditions may differ."}
{"substance": "hexaquis(benzylammonium) decavanadate [Example B6V10]", "values": [{"measurement": "stimulation of glucose transport compared with combination of 100 μM benzylamine and 100 μM vanadate", "setting": "isolated rat adipocytes; 25 μM B6V10, data not shown", "result": "greater stimulation"}, {"measurement": "stimulatory effect on glucose transport in the presence of semicarbazide", "setting": "isolated rat adipocytes", "result": "completely blocked"}, {"measurement": "stimulatory effect on glucose transport in the presence of semicarbazide", "setting": "isolated rat adipocytes; listed as hexaquis(benzylammonium) decavanadate", "result": "completely blocked; also recorded: inhibited"}, {"measurement": "maximum effect on glucose transport compared with benzylamine and vanadate in combination", "setting": "isolated rat adipocytes; combination 100 μM sodium vanadate and 100 μM benzylamine (FIG. 1)", "result": "greater"}, {"measurement": "maximal effect on glucose transport relative to the maximal stimulation caused by insulin", "setting": "isolated rat adipocytes; insulin 100 nM", "result": 85, "unit": "%"}, {"measurement": "concentration at which maximal effect on glucose transport was observed", "setting": "isolated rat adipocytes; isolated rat adipocytes", "result": 2.5, "unit": "µM"}, {"measurement": "concentration from which stimulation of glucose transport was perceptible", "setting": "isolated rat adipocytes; isolated rat adipocytes", "result": 0.5, "unit": "µM"}, {"measurement": "stimulation of glucose transport", "setting": "isolated rat adipocytes; isolated rat adipocytes", "result": "stimulated glucose transport in rat adipocytes in a concentration-dependent manner"}, {"measurement": "stimulation of glucose transport", "setting": "isolated rat adipocytes; isolated rat adipocytes, listed as hexaquis(benzylammonium) decavanadate", "result": "pronounced stimulation"}, {"measurement": "EC50", "setting": "isolated rat adipocytes; isolated rat adipocytes, read-out: semimaximal effect on glucose transport", "result": "> 1000", "unit": "nM"}, {"measurement": "stimulation of glucose transport (increase)", "setting": "[1]", "result": 93, "unit": "%"}, {"measurement": "protein kinase B phosphorylation", "setting": "protein kinase B", "result": "rapidly stimulated"}, {"measurement": "time after addition at which protein kinase B phosphorylation was detectable", "setting": "protein kinase B", "result": 2.5, "unit": "min"}, {"measurement": "protein kinase B phosphorylation in the presence of semicarbazide", "setting": "protein kinase B; semicarbazide 1 mM, 45 min", "result": "blocked"}, {"measurement": "tyrosine phosphorylation of insulin receptors", "setting": "insulin receptor", "result": "undetectable"}, {"measurement": "plasma insulin levels", "setting": "high-fat fed mice; acute administration, mice made glucose intolerant by a high fat diet", "result": "improved plasma insulin levels; also recorded: ameliorated the pattern of plasma insulin levels"}, {"measurement": "glucose tolerance", "setting": "high-fat fed mice; high-fat fed mice", "result": "amelioration of glucose tolerance"}, {"measurement": "plasma concentration of cholesterol", "setting": "diabetic rats", "result": "normalized"}, {"measurement": "plasma concentration of free fatty acids", "setting": "diabetic rats", "result": "normalized"}, {"measurement": "plasma concentration of triglycerides", "setting": "diabetic rats", "result": "normalized"}, {"measurement": "hypoglycemia", "setting": "[2]", "result": "did not cause hypoglycemia"}, {"measurement": "toxicological side effects", "setting": "[2]", "result": "did not show toxicological side effects"}]}
